Source: patent US11142560B2, “Biphasic single-chain insulin analogues” (Case Western Reserve University, priority 2014, dated 2021)
Bridge positions count the residues as written; N and C are the ends. Ends that are not written are not given here.

Target: A isoform of the insulin receptor (Homo sapiens, UniProt P06213)
Experiment: Receptor-binding assay, insulin receptor A isoform
Settings: two-site sequential model, read-out: equilibrium dissociation constant / binding constant
Description: The receptor-binding affinities of SCI-57DP and SCI-57PE were determined in relation to wild-type human insulin. The assay employed the A isoform of the insulin receptor. […] The protocol for assay of receptor-binding activities was as follows. Microtiter strip plates (Nunc Maxisorb) were incubated overnight at 4° C. with AU5 IgG (100 μl/well of […] in phosphate-buffered saline). Binding data were analyzed by a two-site sequential model.

Chain of A isoform of the insulin receptor (P06213 28-746 isoform P06213-2 limits assumed): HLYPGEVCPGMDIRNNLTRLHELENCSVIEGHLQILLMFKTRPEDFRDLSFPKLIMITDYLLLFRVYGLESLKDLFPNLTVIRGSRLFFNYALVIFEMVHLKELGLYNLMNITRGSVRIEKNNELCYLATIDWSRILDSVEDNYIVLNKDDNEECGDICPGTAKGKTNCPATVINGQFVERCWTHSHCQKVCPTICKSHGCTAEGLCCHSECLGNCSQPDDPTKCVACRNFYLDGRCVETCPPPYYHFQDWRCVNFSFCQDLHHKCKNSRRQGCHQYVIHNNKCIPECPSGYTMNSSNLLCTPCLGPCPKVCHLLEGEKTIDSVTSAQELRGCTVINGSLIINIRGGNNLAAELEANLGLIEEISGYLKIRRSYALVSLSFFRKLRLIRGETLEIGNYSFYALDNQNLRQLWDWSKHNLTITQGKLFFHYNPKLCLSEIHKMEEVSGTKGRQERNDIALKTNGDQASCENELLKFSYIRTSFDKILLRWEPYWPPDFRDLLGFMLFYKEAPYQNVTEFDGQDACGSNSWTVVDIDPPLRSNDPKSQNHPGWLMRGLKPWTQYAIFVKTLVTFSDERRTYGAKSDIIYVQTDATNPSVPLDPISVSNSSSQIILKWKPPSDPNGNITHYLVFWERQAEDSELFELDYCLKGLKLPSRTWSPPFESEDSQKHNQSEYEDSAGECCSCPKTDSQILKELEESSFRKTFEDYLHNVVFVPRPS
Chain of A isoform of the insulin receptor (P06213 763-1382 partner limits assumed): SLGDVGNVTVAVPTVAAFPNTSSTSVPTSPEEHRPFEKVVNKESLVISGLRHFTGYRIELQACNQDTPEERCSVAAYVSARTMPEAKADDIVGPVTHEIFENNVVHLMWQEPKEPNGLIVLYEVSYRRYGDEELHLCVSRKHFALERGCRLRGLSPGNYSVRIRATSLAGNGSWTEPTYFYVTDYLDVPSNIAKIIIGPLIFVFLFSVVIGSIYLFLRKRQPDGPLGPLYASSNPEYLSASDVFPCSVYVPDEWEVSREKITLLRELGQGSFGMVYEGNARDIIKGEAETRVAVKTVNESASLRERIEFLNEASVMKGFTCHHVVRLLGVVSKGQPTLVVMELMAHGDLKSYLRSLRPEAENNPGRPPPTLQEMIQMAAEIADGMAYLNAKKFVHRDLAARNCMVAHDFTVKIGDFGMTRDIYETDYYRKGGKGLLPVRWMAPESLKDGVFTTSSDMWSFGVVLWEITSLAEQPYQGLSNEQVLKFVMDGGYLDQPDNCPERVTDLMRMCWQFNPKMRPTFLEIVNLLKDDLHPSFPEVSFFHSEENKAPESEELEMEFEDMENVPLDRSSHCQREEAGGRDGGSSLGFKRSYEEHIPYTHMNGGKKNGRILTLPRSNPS

Kd [nM] | Sequence
0.06 | FVNQHLCGSHLVEALYLVCGERGFFYTDPTEEGPRRGIVEQCCHSICSLEQLENYCN (disulfide 7-43, 19-56, 42-47) [SCI-57DP]
0.08 | FVNQHLCGSHLVEALYLVCGERGFFYTPETEEGPRRGIVEQCCHSICSLEQLENYCN (disulfide 7-43, 19-56, 42-47) [SCI-57PE]
